Measurements as given in US12559769B2, “Methods and compositions for the activation of tumor cytotoxicity via human gamma-delta t-cells” (priority 2017, dated 2026).

Test system: Vγ9Vδ2 T cells
Experiment: Activation of Vγ9Vδ2 T cells (TNF-α, flow cytometry) by PC3 prostate carcinoma cells co-cultured with expanded PBMC
Assay type: cell-based, human
Protocol: PC3 cells were transduced with either LV-vector, LV-BTN3A3 (R381H), or LV-BTN3A3 (WT). Three days after transduction, cells were treated with or without 1 μM zoledronic acid. After 24 hours, the transduced PC3 cells were co-cultured with 5×10^5 PBMC cells and IL-2 in a round bottom 96 well plate for 4 hours. The PBMC cells were pre-stimulated with zoledronic acid and IL-2 for 11 days to expand Vγ9Vδ2 T cells. After staining for Vγ9Vδ2 and TNF-α using fluorophore-conjugated anti TCR-Vδ2 and anti-TNF-α antibody, cells were analyzed via flow cytometry. Live cells were gated, and Vδ2+ and TNF-α+ cells were selected on a dot blot. The activated cytotoxic Vγ9Vδ2 T cells appeared in the upper right quadrant of flow cytograms. Without zoledronic acid, the percent of TNF-α expressing Vγ9Vδ2 T cells was 0.37% with LV-vector, 26.7% with BTN3A3 (R381H), and 0.44% with LV-BTN3A3 (WT). With zoledronic acid, the percent of TNF-α expressing Vγ9Vδ2 T cells was 8.91% with LV-vector, 35.2% with BTN3A3 (R381H), and 8.76% with LV-BTN3A3 (WT).
PC3 cells were transduced with LV-vector, LV-BTN3A3 (R381H), or LV-shFDPS-BTN3A3 (R381H). Three days after transduction, cells were treated with or without 1 μM zoledronic acid. After 24 hours, the transduced PC3 cells were co-cultured with 5×10^5 PBMC cells and IL-2 in a round bottom 96 well plate for 4 hours. The PBMC cells were pre-stimulated with zoledronic acid and IL-2 for 11 days to expand Vγ9Vδ2 T cells. After staining for Vγ9Vδ2 and TNF-α using fluorophore-conjugated anti TCR-Vδ2 and anti-TNF-α antibody, cells were analyzed via flow cytometry. Live cells were gated, and Vδ2+ and TNF-α+ cells were selected on a dot blot. The activated cytotoxic Vγ9Vδ2 T cells appeared in the upper right quadrant of flow cytograms. Without zoledronic acid, the percent of TNF-α expressing Vγ9Vδ2 T cells was 0.1% with LV-vector, 21.1% with BTN3A3 (R381H), and 18.2% with the combination of LV-shFDPS-BTN3A3 (R381H). With zoledronic acid, the percent of TNF-α expressing Vγ9Vδ2 T cells was 13.6% with LV-vector, 25.5% with BTN3A3 (R381H), and 39.6% with the combination of LV-shFDPS-BTN3A3 (R381H).
PC3 cells were transduced with LV-shFDPS or LV-shFDPS-IL-2. Three days after transduction, cells were treated with or without 1 μM zoledronic acid. After 24 hours, the transduced PC3 cells were co-cultured with 5×10^5 PBMC cells and with or without IL-2 in a round bottom 96 well plate for 4 hours. The PBMC cells were pre-stimulated with zoledronic acid and IL-2 for 11 days to expand Vγ9Vδ2 T cells. After staining for Vγ9Vδ2 and TNF-α using fluorophore-conjugated anti TCR-Vδ2 and anti-TNF-α antibody, cells were analyzed via flow cytometry. Live cells were gated, and Vδ2+ and TNF-α+ cells were selected on a dot blot. The activated cytotoxic Vγ9Vδ2 T cells appeared in the upper right quadrant of flow cytograms. With only zoledronic acid, the percent of TNF-α expressing Vγ9Vδ2 T cells was 24.6% with LV-shFDPS and 46.8% with LV-shFDPS-IL-2. With zoledronic acid and IL-2, the percent of TNF-α expressing Vγ9Vδ2 T cells was 48.6% with LV-shFDPS and 41% with LV-shFDPS-IL-2.
PC3 cells were transduced with LV-vector, LV-shFDPS, or LV-shFDPS-IL-15. Three days after transduction, cells were treated with or without 1 μM zoledronic acid. After 24 hours, the transduced PC3 cells were co-cultured with 5×10^5 PBMC cells and with or without IL-2 in a round bottom 96 well plate for 4 hours. The PBMC cells were pre-stimulated with zoledronic acid and IL-2 for 11 days to expand Vγ9Vδ2 T cells. After staining for Vγ9Vδ2 and TNF-α using fluorophore-conjugated anti TCR-Vδ2 and anti-TNF-α antibody, cells were analyzed via flow cytometry. Live cells were gated, and Vδ2+ and TNF-α+ cells were selected on a dot blot. The activated cytotoxic Vγ9Vδ2 T cells appeared in the upper right quadrant of flow cytograms. With only zoledronic acid, the percent of TNF-α expressing Vγ9Vδ2 T cells was 10% with LV-vector, 13% with LV-shFDPS, and 14.6% with LV-shFDPS-IL-15. […]

[1] = Example 25, FIG. 29, LV-FDPS shRNA #4 transduced PC3 cells, drug 1 μM, 24 hours
[2] = Example 25, FIG. 29, LV-control transduced PC3 cells, 1 μM, 24 hours, untreated 1.73%

| SMILES | percent of TNF-α expressing Vγ9Vδ2 T cells (Example 3, LV-vector (control) transduced PC3 cells, 1 μM zoledronic acid) [%] | percent of TNF-α expressing Vγ9Vδ2 T cells (Example 5, LV-vector (control) transduced PC3 cells, 1 μM zoledronic acid) [%] | percent of TNF-α expressing Vγ9Vδ2 T cells (Example 8, LV-vector (control) transduced PC3 cells, only zoledronic acid (1 μM)) [%] | percent of TNF-α expressing Vγ9Vδ2 T cells (Example 8, LV-vector (control) transduced PC3 cells, zoledronic acid (1 μM) and IL-2) [%] | percent of TNF-α expressing Vγ9Vδ2 T cells (Example 19, LV-control transduced PC3 cells, 1 μM zoledronic acid) [%] | percent of TNF-α expressing Vγ9Vδ2 T cells (Example 23, LV-control transduced PC3 cells, 1 μM zoledronic acid) [%] | percent of TNF-α expressing Vγ9Vδ2 T cells [1] [%] | percent of TNF-α expressing Vγ9Vδ2 T cells [2] [%] | percent of TNF-α expressing Vγ9Vδ2 T cells (Example 25, FIG. 29, LV-FDPS shRNA #4 transduced PC3 cells, drug 5 μM, 24 hours) [%] | percent of TNF-α expressing Vγ9Vδ2 T cells (Example 25, FIG. 29, LV-control transduced PC3 cells, 5 μM, 24 hours, untreated 1.73%) [%] |
| --- | --- | --- | --- | --- | --- | --- | --- | --- | --- | --- |
| O=P(O)(O)C(O)(Cn1ccnc1)P(=O)(O)O [zoledronic acid] | 8.91 | 13.6 | 10 | 14.5 | 5.71 | 8.66 | 50.3 | 2.87 | – | – |
| C=C(CC[C@]12O[C@H](C(=O)O)[C@@](O)(C(=O)O)[C@](C(=O)O)(O1)[C@H](OC(=O)/C=C/[C@@H](C)C[C@@H](C)CC)[C@H]2O)[C@@H](OC(C)=O)[C@H](C)Cc1ccccc1 [zaragozic acid] | – | – | – | – | – | – | – | – | 2.66 | 1.57 |
| COC(=O)[C@H](CCSC)NC(=O)c1ccc(NC[C@@H](N)CS)cc1-c1ccccc1 [FT1277] | – | – | – | – | – | – | 2.44 | 1.64 | – | – |
